“Also recorded” adds a separate entry of the source. Where a name gives a salt, the structure may show the parent alone.
Test system: HEK293T lysates
Assay: Chemoproteomic profiling of HEK293T lysates (protein-level enrichment)
Format: biochemical, human
Description: In lysate tryptophan probe treatment for protein-level characterization: HEK293T cell pellets were suspended in native lysis buffer (50 mM HEPES pH 7.5, 150 mM sodium chloride (NaCl), 1.5 mM MgCl2, 1 mM DTT, 0.8% NP-40, 5% glycerol, and 1× protease inhibitors (Thermo)) at 2× the pellet volume. The samples were sonicated on ice for 30 seconds at 20% amplitude with a 2 second pulse ON and 3 second pulse OFF. Cell debris was removed by centrifugation at 20,000×g for 20 minutes at 4° C. Protein concentration was determined by bicinchoninic acid (BCA) (Pierce) and diluted down to 5 mg/mL with ChemProt buffer (50 mM HEPES pH 7.5, 150 mM NaCl, 1.5 mM MgCl2, 1 mM DTT, 0.4% NP-40, and 1x protease inhibitors (Thermo). 5 mg cell lysates were treated with 100× stocks of the tryptophan probes (pyridinium salts 1a, 1b, and 2b) to generate final concentrations (0, 1, 10, and 100 μM) in 1% DMSO. Lysates were incubated for 1 hour at 4° C. followed by photo-activation at respective wavelengths for 20 minutes at 4° C. Excess probe was removed using Sephadex G-25 PD-10 desalting columns (GE Healthcare) pre-equilibrated with 50 mM HEPES pH 7.5, 150 mM NaCl, 1.5 mM MgCl2, and 0.4% NP-40. The samples were then treated with 100 μL Neutravidin resin as a 50% slurry (Peirce). The samples were incubated overnight on a rotating apparatus at R.T. The following day, the beads were transferred to a MobiCol column (Boca Scientific), washed 3× with phosphate buffered saline (PBS) containing 0.2% SDS, washed 3× with PBS, and the enriched proteins were eluted with 2× NuPAGE lithium dodecyl sulfate (LDS) containing 10 mM DTT (Pierce) and heated for 30 minutes at 55° C. The eluent was collected and subsequently treated with 20 mM iodoacetamide (Pierce) for 30 minutes at R.T. protected from light. Samples were passed through detergent removal columns (Pierce) that were pre-equilibrated with 50 mM HEPES pH 8.0. The samples were treated with 2.5 μg Trypsin/LysC (Promega) at 37° C. for 16 hours. The following day, the sample was collected and prepped for isobaric labeling with TMT reagents (Thermo) as specified by the manufacturer.
Quantitative proteomics by two-dimensional nano liquid chromatography-tandem mass spectrometry (nLC-MS/MS): For protein-level characterization, the TMT-labeled sample were reconstituted in 0.1% formic acid (FA)/2% acetonitrile for offline high-pH reversed phase separation (RP10) using a Dionex UltiMate 3000 high-performance liquid chromatography (HPLC) system with fraction collection using Chromeleon v.6.8 (Thermo) software. Separation was achieved on a Waters Xbridge C18 3.5 μm 2.1×150 mm HPLC column (Waters) using a flow rate of 250 μL min-1 and the following ternary gradient and conditions: mobile phase A=water (HPLC grade), mobile phase B=acetonitrile (HPLC grade), and mobile phase C=200 mM ammonium acetate, pH 10. Mobile phase C is held at 10% throughout gradient. Starting conditions are 89% mobile phase A and 1% mobile phase B, ramping mobile phase B to 80% over 65 min. Fractions were collected in 96-well plates at 100 sec per well. Fractions were reduced down to 12 fractions, dried, and reconstituted in 0.1% FA/2% acetonitrile for nLC-MS/MS. All data were acquired using a Orbitrap Fusion Lumos coupled to an Easy-nLC 1200 nanoflow liquid chromatograph operating at 300 nL min-1. Peptides were cleaned up using a 1 cm online custom trap then eluted on a custom 20 cm laser pulled 75 μm column with C18 resin. Peptides were quantified using the synchronous precursor selection (SPS-MS3) or HCD method for TMT quantitation with 120k MS1 resolving power, 50 ms max injection time and 100% AGC. MS2 spectra were selected using the top ten most abundant features with a charge state between 2-6 using CID (collision induced dissociation) in the ion trap. The AGC was set to 100% with an isolation width of 0.7. MS3 was performed on the top 10 most abundant MS2 features between 400-1600 amu with a collision energy of 55%, AGC of 250%, and 50k resolution. […]

COc1ccc2cc(-c3cc(C)[n+](N(C)C(=O)OCCCCC[C@H]4SC[C@H]5NC(=O)N[C@H]54)c(C)c3)ccc2c1 (stereo in doubt) [pyridinium salt 2b, 4-(6-methoxynaphthalen-2-yl)-2,6-dimethyl-1-(methyl(((5-((3aR,4R,6aS)-2-oxohexahydro-1H-thieno[3,4-d]imidazol-4-yl)pentyl)oxy)carbonyl)amino)pyridin-1-ium tetrafluoroborate]
Western blot (streptavidin-HRP) proteome labeling profile of elutions (0-100 μM probe, with/without light, before digestion): concentration and optically dependent proteome labeling profiles; also recorded: dose-response profiles
percentage of unique enriched proteins (proteome coverage comparison of probes) (100 μM probe, FIG. 17B): about 69%
number of proteins identified (from ≥2 unique peptides) showing ≥2-fold enrichment versus DMSO (about 100 μM probe, 5 mg/mL lysate, 60 min incubation, 20 min irradiation: 302 nm (1a), 320 nm (1b), 440 nm (2b)): 523
